ChEMBL document CHEMBL1201862, “PubChem BioAssay data set” (2004)
Where “and” joins values, the source holds several entries; their conditions need not be identical. Equal values may be shown once.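 Briefly, cells in 96-well plates were exposed to five compound concentrations for 48 h, and endpoints were estimated by linear interpolation. GI50 = concentration required for 50% inhibition of growth.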 Calls of active or inactive are those of the source. No stated cut-off is given here; in the data, active = GI50 up to about 1.1 µM and inactive = higher.

What was measured:
Test in all cases: DTP human tumour cell line panel, 48 h
IGROV-1 = test system: IGROV-1
HOP-62 = test system: HOP-62
UACC-257 = test system: UACC-257
MDA-MB-231 = test system: MDA-MB-231
M14 = test system: M14
CAKI-1 = test system: CAKI-1
A498 = test system: A498
OVCAR-3 = test system: OVCAR-3
HCC 2998 = test system: HCC 2998
ACHN = test system: ACHN
NCI-H460 = test system: NCI-H460
PC-3 = test system: PC-3
SK-MEL-28 = test system: SK-MEL-28
HCT-116 = test system: HCT-116
SN12C = test system: SN12C
NCI/ADR-RES = test system: NCI/ADR-RES
SF-268 = test system: SF-268
RPMI-8226 = test system: RPMI-8226
UACC-62 = test system: UACC-62
SK-MEL-5 = test system: SK-MEL-5
BT-549 = test system: BT-549
TK-10 = test system: TK-10
RXF 393 = test system: RXF 393
MCF7 = test system: MCF7
MOLT-4 = test system: MOLT-4
SF-539 = test system: SF-539
UO-31 = test system: UO-31
HT-29 = test system: HT-29
OVCAR-5 = test system: OVCAR-5
SNB-19 = test system: SNB-19
SK-OV-3 = test system: SK-OV-3
HL-60 = test system: HL-60
A549 = test system: A549
T47D = test system: T47D
SK-MEL-2 = test system: SK-MEL-2
SNB-75 = test system: SNB-75
K562 = test system: K562
SF-295 = test system: SF-295
786-0 = test system: 786-0
MDA-MB-435 = test system: MDA-MB-435
CCRF-CEM = test system: CCRF-CEM
MDA-N = test system: MDA-N
DU-145 = test system: DU-145
EKVX = test system: EKVX
KM12 = test system: KM12
Malme-3M = test system: Malme-3M
COLO 205 = test system: COLO 205
SW-620 = test system: SW-620
OVCAR-8 = test system: OVCAR-8
OVCAR-4 = test system: OVCAR-4
U-251 = test system: U-251
LOX IMVI = test system: LOX IMVI
NCI-H522 = test system: NCI-H522
HCT-15 = test system: HCT-15
NCI-H23 = test system: NCI-H23
NCI-H226 = test system: NCI-H226
HOP-92 = test system: HOP-92
SR = test system: SR

Compound: CN(C)Cc1cc(/C=C/C(=O)c2ccc(Cl)c(Cl)c2)cc(CN(C)C)c1O
- GI50 (IGROV-1): 9.98 µM (inactive)
- GI50 (HOP-62): 15.5 µM (inactive)
- GI50 (UACC-257): 12.1 µM (inactive)
- GI50 (MDA-MB-231): 7.05 µM (inactive)
- GI50 (M14): 13 µM (inactive)
- GI50 (CAKI-1): 9.02 µM (inactive)
- GI50 (A498): 16.1 µM (inactive)
- GI50 (OVCAR-3): 10.3 µM (inactive)
- GI50 (HCC 2998): 6.35 µM (inactive)
- GI50 (ACHN): 12.8 µM (inactive)
- GI50 (NCI-H460): 10.4 µM (inactive)
- GI50 (PC-3): 12.4 µM (inactive)
- GI50 (SK-MEL-28): 12.5 µM (inactive)
- GI50 (HCT-116): 12.8 µM (inactive)
- GI50 (SN12C): 13.5 µM (inactive)
- GI50 (NCI/ADR-RES): 19 µM (inactive)
- GI50 (SF-268): 10.8 µM (inactive)
- GI50 (RPMI-8226): 13.4 µM (inactive)
- GI50 (UACC-62): 14.3 µM (inactive)
- GI50 (SK-MEL-5): 11.7 µM (inactive)
- GI50 (BT-549): 7.74 µM (inactive)
- GI50 (TK-10): 12.4 µM (inactive)
- GI50 (RXF 393): 11 µM (inactive)
- GI50 (MCF7): 12.9 µM (inactive)
- GI50 (MOLT-4): 10.1 µM (inactive)
- GI50 (SF-539): 6.92 µM (inactive)
- GI50 (UO-31): 6.46 µM (inactive)
- GI50 (HT-29): 10.8 µM (inactive)
- GI50 (OVCAR-5): 12.5 µM (inactive)
- GI50 (SNB-19): 15 µM (inactive)
- GI50 (SK-OV-3): 21.8 µM (inactive)
- GI50 (HL-60): 3.9 µM (inactive)
- GI50 (A549): 15.9 µM (inactive)
- GI50 (T47D): 11 µM (inactive)
- GI50 (SK-MEL-2): 14 µM (inactive)
- GI50 (SNB-75): 9.12 µM (inactive)
- GI50 (K562): 25.2 µM (inactive)
- GI50 (SF-295): 20.2 µM (inactive)
- GI50 (786-0): 9.4 µM (inactive)
- GI50 (MDA-MB-435): 5.32 µM (inactive)
- GI50 (CCRF-CEM): 5.02 µM (inactive)
- GI50 (MDA-N): 11.2 µM (inactive)
- GI50 (DU-145): 13.9 µM (inactive)
- GI50 (EKVX): 15.6 µM (inactive)
- GI50 (KM12): 13.1 µM (inactive)
- GI50 (Malme-3M): 9.59 µM (inactive)
- GI50 (COLO 205): 11.2 µM (inactive)
- GI50 (SW-620): 12.9 µM (inactive)
- GI50 (OVCAR-8): 13.6 µM (inactive)

Compound: O/N=C/C1C(OCc2ccccc2)C(OCc2ccccc2)C(OCc2ccccc2)CN1Cc1ccccc1 (stereo not given)
- GI50 (OVCAR-4): 6.41 µM (inactive)
- GI50 (IGROV-1): 22.1 µM (inactive) and 34 µM (inactive)
- GI50 (MDA-MB-231): 4.15 µM (inactive)
- GI50 (U-251): 9.16 µM (inactive) and 15.5 µM (inactive)
- GI50 (CAKI-1): 2.74 µM (inactive)
- GI50 (A498): 5.2 µM (inactive)
- GI50 (HCC 2998): 7.48 µM (inactive)
- GI50 (SK-MEL-28): 14.3 µM (inactive) and 15.2 µM (inactive)
- GI50 (HCT-116): 3.89 µM (inactive) and 4.97 µM (inactive)
- GI50 (LOX IMVI): 10.6 µM (inactive) and 6 µM (inactive)
- GI50 (SF-268): 16.7 µM (inactive) and > 10 µM (inactive)
- GI50 (RPMI-8226): 22.6 µM (inactive)
- GI50 (UACC-62): 13.9 µM (inactive) and 18.7 µM (inactive)
- GI50 (SK-MEL-5): 11.7 µM (inactive)
- GI50 (BT-549): 15.3 µM (inactive)
- GI50 (RXF 393): 3.51 µM (inactive)
- GI50 (NCI-H522): 9.55 µM (inactive)
- GI50 (MOLT-4): 2.77 µM (inactive) and 1.52 µM (inactive)
- GI50 (SF-539): 7.26 µM (inactive)
- GI50 (SNB-19): 29.4 µM (inactive) and 38.8 µM (inactive)
- GI50 (HL-60): 13.1 µM (inactive)
- GI50 (A549): 4.44 µM (inactive) and 7.87 µM (inactive)
- GI50 (T47D): 5.26 µM (inactive)
- GI50 (SK-MEL-2): 19.6 µM (inactive)
- GI50 (K562): 3.82 µM (inactive) and 4.53 µM (inactive)
- GI50 (SF-295): 6.15 µM (inactive) and 10.7 µM (inactive)
- GI50 (786-0): 8.99 µM (inactive) and 5.94 µM (inactive)
- GI50 (CCRF-CEM): 3.37 µM (inactive) and 3.65 µM (inactive)
- GI50 (MDA-N): 16 µM (inactive) and 12.4 µM (inactive)
- GI50 (DU-145): 35.2 µM (inactive) and 60.4 µM (inactive)
- GI50 (EKVX): 41.2 µM (inactive)
- GI50 (SW-620): 5.41 µM (inactive) and 10.2 µM (inactive)
- GI50 (OVCAR-8): 16 µM (inactive) and 13.1 µM (inactive)

Compound: O=C1c2ccccc2-c2nc(-c3ccncc3)cc3c2c1nc1ccccc13
- GI50 (OVCAR-4): 27.3 µM (inactive)
- GI50 (HCT-15): 19 µM
- GI50 (IGROV-1): 1.07 µM (active)
- GI50 (HOP-62): 6.55 µM (inactive)
- GI50 (UACC-257): 19.1 µM (inactive)
- GI50 (MDA-MB-231): > 100 µM (inactive)
- GI50 (M14): 3.21 µM (inactive)
- GI50 (U-251): 14.9 µM (inactive)
- GI50 (NCI-H23): 15.3 µM (inactive)
- GI50 (CAKI-1): > 100 µM (inactive)
- GI50 (OVCAR-3): 1.52 µM (inactive)
- GI50 (HCC 2998): 18.7 µM (inactive)
- GI50 (ACHN): 8.32 µM (inactive)
- GI50 (NCI-H460): 10.5 µM (inactive)
- GI50 (PC-3): 13.3 µM (inactive)
- GI50 (SK-MEL-28): 32.3 µM (inactive)
- GI50 (NCI-H226): 16.6 µM (inactive)
- GI50 (HCT-116): 6.4 µM (inactive)
- GI50 (SN12C): 15.1 µM (inactive)
- GI50 (NCI/ADR-RES): > 100 µM (inactive)
- GI50 (HOP-92): > 100 µM (inactive)
- GI50 (LOX IMVI): 14.5 µM (inactive)
- GI50 (RPMI-8226): 11.4 µM (inactive)
- GI50 (UACC-62): 13.4 µM (inactive)
- GI50 (BT-549): 40.1 µM (inactive)
- GI50 (TK-10): 33.2 µM (inactive)
- GI50 (MCF7): 16.5 µM (inactive)
- GI50 (NCI-H522): 10.7 µM (inactive)
- GI50 (MOLT-4): 2.83 µM (inactive)
- GI50 (SF-539): 22 µM (inactive)
- GI50 (UO-31): 9.71 µM (inactive)
- GI50 (HT-29): 24.9 µM (inactive)
- GI50 (OVCAR-5): 18.7 µM (inactive)
- GI50 (SR): 2.38 µM (inactive)
- GI50 (SNB-19): 23.6 µM (inactive)
- GI50 (SK-OV-3): > 100 µM (inactive)
- GI50 (HL-60): 11 µM (inactive)
- GI50 (A549): 13.6 µM (inactive)
- GI50 (SK-MEL-2): 11.3 µM (inactive)
- GI50 (SNB-75): 32.5 µM (inactive)
- GI50 (K562): 16.1 µM (inactive)
- GI50 (SF-295): 11.3 µM (inactive)
- GI50 (786-0): 11.1 µM (inactive)
- GI50 (MDA-MB-435): 16 µM (inactive)
- GI50 (CCRF-CEM): 9.33 µM (inactive)
- GI50 (MDA-N): 17.4 µM (inactive)
- GI50 (DU-145): 14.8 µM (inactive)
- GI50 (EKVX): 34.2 µM (inactive)
- GI50 (KM12): 11.8 µM (inactive)
- GI50 (Malme-3M): 4.27 µM (inactive)
- GI50 (COLO 205): 22.3 µM (inactive)
- GI50 (SW-620): 24.3 µM (inactive)
- GI50 (OVCAR-8): 25.2 µM (inactive)
